# Reference: patent publication US7560466B2, “Methods of treating or preventing autoimmune diseases with 2,4-pyrimidinediamine compounds” (Rigel Pharmaceuticals, Inc., priority 2003, dated 2009)
# pIC50: −log10 of the molar value. Counter-ions that a name gives are not always drawn. Like-named read-outs stand apart in the source and are kept apart here.
# System: cultured human mast cells (CHMC), IgE-induced degranulation
# Assay: CHMC low cell density IgE activation: tryptase assay
# Assay type: cell-based
# Conditions: CHMC low cell density
# Description: Inhibition of degranulation was measured at both low and high cell density by quantifying the release of the granule specific factors tryptase, histamine and hexosaminidase. Inhibition of release and/or synthesis of lipid mediators was assessed by measuring the release of leukotriene LTC4 and inhibition of release and/or synthesis of cytokines was monitored by quantifying TNF-α, IL-6 and IL-13. Tryptase and hexosaminidase were quantified using fluorogenic substrates as described in their respective examples. […] The protocols of the various assays are provided below.
# A second phase is performed to convert the expanded CD34-negative progenitor cells into differentiated mucosal mast cells. These mucosal cultured human mast cells (“CHMC”) are derived from CD34+ cells isolated from umbilical cord blood and treated to form a proliferated population of CD34-negative progenitor cells, as described above. […] Also, the cytokine composition of the medium was modified such that it contained SCF (200 ng/mL) and recombinant human IL-6 (200 ng/mL; Peprotech, Catalog No. 200-06 reconstituted to 100 ug/mL in sterile 10 mM acetic acid) (“CM/SCF/IL-6 medium”).
# Pellet CHMC cells (980 rpm, 10 min) and resuspend in pre-warmed MT. Add 65 ul of cells to each 96-well plate. Depending on the degranulation activity for each particular CHMC donor, load 1000-1500 cells/well. Mix four times followed by a 1 hr incubation at 37° C. […] Stimulate cells by adding 25 ul of 6× anti-IgE solution to the appropriate plates. Add 25 ul MT to un-stimulated control wells. Mix twice following addition of the anti-IgE. Incubate at 37° C. for 30 minutes. […] Spin plates at 1000 rpm for 10 min to pellet cells. Transfer 25 ul of supernatant to a 96-well black bottom plate and add 100 ul of freshly diluted tryptase substrate solution to each well. Incubate plates at room temperature for 30 min.
# In Table 1, all reported values are IC50s (in μM). […] In Table 1, all reported values are IC50s (in μM).
# [1] = 3pt, read-out: LD Tryptase, CHMC, IgE, 3pt
# [2] = 8pt, read-out: LD Tryptase, CHMC, IgE, 8pt
SMILES,pIC50 [1],pIC50 [2]
"COc1cc(Nc2ncc(F)c(Nc3ccc4c(n3)NC(=O)C(C)(C)O4)n2)cc(OC)c1OC.O=S(=O)(O)c1cccnc1 [Compound 678, N4-(2,2-Dimethyl-3-oxo-4H-5-pyrid[1,4]oxazin-6-yl)-5-fluoro-N2-(3,4,5-trimethoxyphenyl)-2,4-pyrimidinediamine 0.5 Pyridine-3-sulfonic Acid Salt]",> 5.00,> 5.00
"CCc1ccc(S(=O)(=O)O)cc1.COc1cc(Nc2ncc(F)c(Nc3ccc4c(n3)NC(=O)C(C)(C)O4)n2)cc(OC)c1OC [Compound 679, N4-(2,2-Dimethyl-3-oxo-4H-5-pyrid[1,4]oxazin-6-yl)-5-fluoro-N2-(3,4,5-trimethoxyphenyl)-2,4-pyrimidinediamine p-Ethylbenzenesulfonic Acid Salt]",> 5.00,> 5.00
"CNC(=O)Cn1ccc2cc(Nc3ncc(F)c(Nc4ccc5c(n4)NC(=O)C(C)(C)O5)n3)ccc21 [Compound 683, N4-(2,2-Dimethyl-3-oxo-4H-5-pyrid[1,4]oxazin-6-yl)-5-fluoro-N2-[1-(N-methylamino)carbonylmethyleneindol-5-yl]-2,4-pyrimidinediamine]",> 5.00,> 5.00
"Cc1cc(Nc2ncc(F)c(Nc3ccc4c(n3)NC(=O)C(C)(C)O4)n2)cc(C)c1Cl [Compound 684, N2-(4-Chloro-3,5-dimethylphenyl)-N4-(2,2-dimethyl-3-oxo-4H-5-pyrid[1,4]oxazin-6-yl)-5-fluoro-2,4-pyrimidinediamine p-Toluenesulfonic Acid Salt]",> 5.00,–
"CN1C(=O)C(C)(C)Oc2ccc(Nc3ncc(F)c(Nc4ccc5c(n4)N(C)C(=O)C(C)(C)O5)n3)nc21 [Compound 687, N2,N4-Bis(3-oxo-2,2,4-trimethyl-5-pyrid[1,4]oxazin-6-yl)-5-fluoro-2,4-pyrimidinediamine]",> 5.00,–
"COC(=O)CN1C(=O)C(C)(C)Oc2ccc(Nc3ccnc(Nc4ccc5c(n4)N(CC(=O)OC)C(=O)C(C)(C)O5)n3)nc21 [Compound 688, N2,N4-Bis(2,2-dimethyl-4-carbomethoxymethyl-3-oxo-5-pyrid[1,4]oxazin-6-yl)-2,4-pyrimidinediamine]",< 5.00,–
"COc1cc(Nc2ncc(F)c(Nc3ccc4c(n3)N(C)C(=O)C(C)(C)O4)n2)cc(OC)c1OC [Compound 689, 5-Fluoro-N4-(3-oxo-2,2,4-trimethyl-5-pyrid[1,4]oxazin-6-yl)-N2-(3,4,5-trimethoxyphenyl)-2,4-pyrimidinediamine]",–,> 5.00
"COC(=O)CN1C(=O)C(C)(C)Oc2ccc(N(CC(=O)OC)c3nc(Nc4cc(OC)c(OC)c(OC)c4)ncc3F)nc21 [Compound 691, N4-(2,2-Dimethyl-4-carbomethoxymethyl-3-oxo-5-pyrid[1,4]oxazin-6-yl)-5-fluoro-N4-carbomethoxymethyl-N2-(3,4,5-trimethoxyphenyl)-2,4-pyrimidinediamine]",> 5.00,–
"Cc1n[nH]c2cc(Nc3ncc(F)c(Nc4ccc5c(n4)NC(=O)C(C)(C)O5)n3)ccc12 [Compound 813, N4-(2,2-Dimethyl-3-oxo-4H-5-pyrid[1,4]oxazin-6-yl)-5-fluoro-N2-(3-methyl-1H-indazol-6-yl)-2,4-pyrimidinediamine]",–,> 5.00
"CC1(C)Oc2ccc(Nc3nc(Nc4ccc5c(cnn5CCCN5C(=O)c6ccccc6C5=O)c4)ncc3F)cc2NC1=O [Compound 817, N4-(2,2-Dimethyl-3-oxo-4H-benz[1,4]oxazin-6-yl)-5-fluoro-N2-[1-[3-(N-phthalimidopropyl)]indazol-5-yl]-2,4-pyrimidinediamine]",–,> 5.00
"Cn1nc(N)c2cc(Nc3ncc(F)c(Nc4ccc5c(n4)NC(=O)C(C)(C)O5)n3)ccc21 [Compound 837, N2-(3-A mino-1-methylindazol-5-yl)-N4-(2,2-dimethyl-3-oxo-4H-5-pyrid[1,4]oxazin-6-yl)-5-fluoro-2,4-pyrimidinediamine]",> 5.00,> 5.00
"CC1(C)Oc2ccc(Nc3nc(Nc4ccc5c(cnn5CCCO)c4)ncc3F)nc2NC1=O [Compound 838, N4-(2,2-Dimethyl-3-oxo-4H-5-pyrid[1,4]oxazin-6-yl)-5-fluoro-N2-[1-(3-hydroxypropyl)indazol-5-yl]-2,4-pyrimidinediamine]",> 5.00,> 5.00
"CC1(C)Oc2ccc(Nc3nc(Nc4ccc5c(cnn5CCCNS(=O)(=O)C(F)(F)F)c4)ncc3F)nc2NC1=O [Compound 844, N4-(2,2-Dimethyl-3-oxo-4H-5-pyrid[1,4]oxazin-6-yl)-5-fluoro-N2-[1-[3-(N-trifluoromethylsulfonylamino)propyl]indazol-5-yl]-2,4-pyrimidinediamine]",–,< 5.00
"CC(C)(C)C(=O)NCCCn1ncc2cc(Nc3ncc(F)c(Nc4ccc5c(n4)NC(=O)C(C)(C)O5)n3)ccc21 [Compound 852, N4-(2,2-Dimethyl-3-oxo-4H-5-pyrido[1,4]oxazin-6-yl)-5-fluoro-N2-[1-(3-pivalamidopropyl)indazol-5-yl]-2,4-pyrimidinediamine]",–,> 5.00
"C[C@@H]1Oc2ccc(Nc3nc(Nc4ccc5c(cnn5CCCN5C(=O)CCC5=O)c4)ncc3F)cc2NC1=O [Compound 856, (S)-5-Fluoro-N4-(2-methyl-3-oxo-2H,4H-benz[1,4]oxazin-6-yl)-N2-[1-[3-(N-succinimidopropyl)]indazol-5-yl]-2,4-pyrimidinediamine]",> 5.00,> 5.00
"CC1(C)Oc2ccc(Nc3nc(Nc4ccc5c(cnn5CCCN5C(=O)CCC5=O)c4)ncc3F)nc2NC1=O [Compound 857, N4-(2,2-Dimethyl-3-oxo-4H-5-pyrid[1,4]oxazin-6-yl)-5-fluoro-N2-[1-[3-(N-succinimidopropyl)]indazol-5-yl]-2,4-pyrimidinediamine]",> 5.00,> 5.00

# Results, then the compound that gave them:
pIC50 [1],pIC50 [2],SMILES
> 5.00,> 5.00,"CC1(C)Oc2ccc(Nc3nc(Nc4cc(Cl)c(O)c(Cl)c4)ncc3F)nc2NC1=O [Compound 686, N4-(2,2-Dimethyl-3-oxo-4H-5-pyrid[1,4]oxazin-6-yl)-N2-(3,5-dichloro-4-hydroxyphenyl)-5-fluoro-2,4-pyrimidinediamine]"
–,> 5.00,"COC(=O)CN1C(=O)C(C)(C)Oc2ccc(Nc3nc(Nc4cc(OC)c(OC)c(OC)c4)ncc3F)nc21 [Compound 690, N4-(2,2-Dimethyl-4-carbomethoxymethyl-3-oxo-5-pyrid[1,4]oxazin-6-yl)-5-fluoro-N2-(3,4,5-trimethoxyphenyl)-2,4-pyrimidinediamine]"
> 5.00,> 5.00,"COc1cc(Nc2ncc(F)c(Nc3ccc4c(n3)NC(=O)C(C)(C)O4)n2)cc(OC)c1OCCN1CCOCC1 [Compound 692, N2-[3,5-Dimethoxy-4-(2-(N-morpholino)ethyloxo)phenyl]-N4-(2,2-dimethyl-3-oxo-4H-5-pyrid[1,4]oxazin-6-yl)-5-fluoro-2,4-pyrimidinediamine]"
> 5.00,–,"CC1(C)Oc2ccc(Nc3ncc(F)c(Nc4ccc5c(n4)NC(=O)C(C)(C)O5)n3)nc2NC1=O [Compound 693, N2,N4-Bis(2,2-dimethyl-3-oxo-4H-5-pyrid[1,4]oxazin-6-yl)-5-fluoro-2,4-pyrimidinediamine]"
–,> 5.00,"Cc1nn(C)c2cc(Nc3ncc(F)c(Nc4ccc5c(n4)NC(=O)C(C)(C)O5)n3)ccc12 [Compound 812, N2-(1,3-Dimethylindazol-6-yl)-N4-(2,2-dimethyl-3-oxo-4H-5-pyrid[1,4]oxazin-6-yl)-5-fluoro-2,4-pyrimidinediamine]"
–,> 5.00,"COCCCn1ncc2cc(Nc3ncc(F)c(Nc4ccc5c(n4)NC(=O)C(C)(C)O5)n3)ccc21 [Compound 814, N4-(2,2-Dimethyl-3-oxo-4H-5-pyrid[1,4]oxazin-6-yl)-5-fluoro-N2-[1-(3-methoxypropyl)indazol-5-yl]-2,4-pyrimidinediamine]"
–,> 5.00,"C[C@@H]1Oc2ccc(Nc3nc(Nc4ccc5c(cnn5CCCN5C(=O)c6ccccc6C5=O)c4)ncc3F)cc2NC1=O [Compound 818, (S)-5-Fluoro-N4-(2-methyl-3-oxo-2H,4H-benz[1,4]oxazin-6-yl)-N2-[1-[3-(N-phthalimidopropyl)]indazol-5-yl]-2,4-pyrimidinediamine]"
> 5.00,> 5.00,"COCCCn1ncc2ccc(Nc3ncc(F)c(Nc4ccc5c(n4)NC(=O)C(C)(C)O5)n3)cc21 [Compound 839, N4-(2,2-Dimethyl-3-oxo-4H-5-pyrid[1,4]oxazin-6-yl)-5-fluoro-N2-[1-(3-methoxypropyl)indazol-6-yl]-2,4-pyrimidinediamine]"
> 5.00,> 5.00,"CC1(C)Oc2ccc(Nc3nc(Nc4ccc5c(cnn5CCCN5C(=O)CCC5=O)c4)ncc3F)cc2NC1=O [Compound 855, N4-(2,2-Dimethyl-3-oxo-4H-benz[1,4]oxazin-6-yl)-5-fluoro-N2-[1-[3-(N-succinimidopropyl)]indazol-5-yl]-2,4-pyrimidinediamine]"
